For 7 compounds, IC50 results are on record in patent publication US20070197523A1, “CALCIUM CHANNEL ANTAGONISTS” (ICAGEN, INC., priority 2005, published 2007).

The test system of this assay is T-type calcium channels. Put plainly: T-type calcium channel inhibitory activity (fluorometric FLIPR Fluo-4 and whole cell patch clamp). The assay is classed as cell-based, mammalian. The note with it: inhibition of T-type calcium channels; cells natively expressing or HEK-293 cells expressing recombinant channels. The procedure: T-type calcium channel inhibitory activity of some compounds of the invention was evaluated using both fluorometric as well as electrophysiological measurement methodologies, which are known to those skilled in the art. Fluorescence measurement of changes in intracellular calcium due to entry of calcium through T-type calcium channels was assessed using calcium sensitive fluorescent dyes Fluo-4 and Fluo-3. In brief, cells natively expressing T-type channels or HEK-293 cells transiently or stably expressing recombinant mammalian T-type calcium channels grown in 96-well tissue culture plates in DMEM/High glucose, Hyclone, Fetal Bovine Serum (10%), and 2 mM sodium pyruvate 2 mM (and for cells lines recombinantly expressing T-type calcium channels, G418 @ 400 mg/liter) were loaded with 4 μM Fluo-4 made up in Earls Balanced Salt Solution (EBSS). After incubation for 30 minutes at room temperature, cells were washed with low calcium (0.5 mM) EBSS to remove extracellular Fluo-4. Baseline fluorescence was measured in a FLIPR (FLuorescence Image Plate Reader) (Molecular Devices Inc) after applying test compounds at desired concentration for 5-10 minutes. The effect of test compound on calcium entry was assessed by monitoring changes in Fluo-4 fluorescence following an elevation of extracellular calcium concentration from 0.5 mM to 5 mM. […] Native cells natively expressing T-type channels or HEK-293 cells transiently or stably expressing recombinant mammalian T-type calcium channels were grown in DMEM/High glucose, Hyclone, Fetal Bovine Serum (10%), 2 mM sodium pyruvate 2 mM (and for cells lines recombinantly expressing T-type calcium channels, G418 @ 400 mg/liter) on glass coverslips in 35 mm tissue culture dishes. Experiments were performed by placing T-type calcium channels expressing cells in a recording chamber perfused with EBSS (which contains (in mM): 132 NaCl, 5.4 KCl, 1.8 CaCl2, 0.8 MgCl2, 10 Hepes, 5 glucose, pH 7.4 with NaOH) on the stage of an inverted microscope. Electrical currents were measured using the whole cell configuration of the patch clamp technique (Axopatch 200B, Axon Instruments (Molecular Devices) (see Hamill et al (1981) Pflugers Arch. 1981 391:85-100) using 2-2.5 MOhm resistance glass pipettes filled with 135 CsF, 5 CsCl, 5 NaCl, 5 EGTA, 10 HEPES, pH 7.3 with CsOH, Osmolarity ˜288 mOsm. Test compound effects were typically assessed under conditions in which approximately half of the available channels were inactivated either by an 8 second conditioning depolarization from a holding potential of −100 mV to a potential ranging from −70 mV to −60 mV or by continually holding the membrane potential at −70 mV. Test compounds were assessed for their ability to reduce the amplitude of the inward T-type calcium current elicited by a 100 ms step depolarization −20 or −30 mV.
On to `CCOc1cccc(S(=O)(=O)c2cnc(Nc3cc(NCC(C)(C)N)nc(C(F)(F)F)n3)s2)c1` [Example 18, N-(2-Amino-2-methyl-propyl)-N′-[5-(3-ethoxy-benzenesulfonyl)-thiazol-2-yl]-2-trifluoromethyl-pyrimidine-4,6-diamine], for which the IC50 is 1 to 1000 nM.
On to `CCOc1cccc(S(=O)(=O)c2cnc(Nc3cc(N(C)CCOC)ncn3)s2)c1` [Example 5, N-[5-(3-Ethoxy-benzenesulfonyl)-thiazol-2-yl]-N′-(2-methoxy-ethyl)-N′-methyl-pyrimidine-4,6-diamine], for which the IC50 lay within 1000 to 10000 nM.
As for `CCOc1cccc(S(=O)(=O)c2cnc(Nc3cc(NCC4(N)CCCCC4)nc(C)n3)s2)c1` [Example 11, N-(1-Amino-cyclohexylmethyl)-N′-[5-(3-ethoxy-benzenesulfonyl)-thiazol-2-yl]-2-methyl-pyrimidine-4,6-diamine], the IC50 fell in the range of 1 to 1000 nM.
To `CCOc1cccc(S(=O)(=O)c2cnc(Nc3cc(NCCOC)ncn3)s2)c1` [Example 4, N-[5-(3-Ethoxy-benzenesulfonyl)-thiazol-2-yl]-N′-(2-methoxy-ethyl)-pyrimidine-4,6-diamine] belongs 1000 to 10000 nM; to `CCOc1cccc(S(=O)(=O)c2cnc(Nc3nc(C)nc(OCCOC)c3F)s2)c1` [Example 25, N-[5-(3-ethoxy-benzenesulfonyl)-thiazol-2-yl]-[5-fluoro-6-(2-methoxy-ethoxy)-2-methyl-pyrimidin-4-yl]-amine], 1 to 1000 nM.
To `CCOc1cccc(S(=O)(=O)c2cnc(Nc3cc(C#CCN(C)C(=O)OC(C)(C)C)nc(C)n3)s2)c1` [Example 30, (3-{6-[5-(3-Ethoxy-benzenesulfonyl)-thiazol-2ylamino]-2-methyl-pyrimidin-4-yl}-prop-2-ynyl)-methyl-carbamic acid tert-butyl ester] belongs 1 to 1000 nM.
`CCOc1cccc(S(=O)(=O)c2cnc(Nc3cc(CCC(C)(C)N)nc(C)n3)s2)c1` [Example 36, [6-(3-Amino-3-methyl-butyl)-2-methyl-pyrimidin-4-yl]-[5-(3-ethoxy-benzenesulfonyl)-thiazol-2yl]-amine]: the IC50 lay within 1 to 1000 nM.
